Read-outs that look alike come from different tables or passages of the source.
What was measured:
MTT cytotoxicity assay = assay type: cell-based, mouse; details: mouse; MTT, 48 hours; read-out: Cytotoxicity NIH-3T3 cell line (IC50)
Method: The cytotoxicity was recorded as concentration causing 50% growth inhibition (IC50).

[1] = tested on: Bacillus subtilis (ATCC 6633); test: Microplate Alamar Blue Assay, Bacillus subtilis; assay type: cell-based
Method: (§1) The anti-bacterial activity of synthesized compound were evaluated by the Microplate Alamar Blue Assay. Staphylococcus aureus (ATCC 25923), Pseudomonas aeruginosa(POA 286), Salmonella typhi (ATCC 14028), Bacillus subtilis ATCC 6633) and Escherichia coli (ATCC 12022) were used in this study as a standard bacterial strains and they were obtained from microbial bank of PCMD, International Center for Chemical and Biological Sciences, University of Karachi, Karachi-75270, Pakistan. The bacterial colonies grown in Trypton Soya Agar (TSA) (Oxoid Limited, UK) were inoculated in Mueller Hinton Broth (MHB) (Oxoid Limited, UK) and incubated overnight at 37 °C. Fully grown bacterial cultures were then diluted to adjust with 0.5 McFarland Turbidity Index (equivalent to 1.5 × 10^8 CFU/mL). Stock solutions (4 mg/mL) of different test compounds were prepared in DMSO and 10μL each of these stock solutions were placed in well of flat bottom, polystyrene, sterile 96-wells plate except the positive control wells (media + bacteria). This gives 200μg/mL concentrations of compounds in final 200 μL solution. Each compound was run in triplicates. Finally, bacterial suspension (5 x 10^6 CFU/mL) was added in each well. Plates were sealed by parafilm and incubated at 37 °C for 18–22 hrs. Next day, 20 μL of 0.02% resazurin sodium salt dye (Chem-Impex-Int’LInc) was added in each well and incubated in shaking incubator at 80 rpm, 37 °C for 2–3 hrs. The color change from blue to reddish pink indicates the growth of bacteria. For quantitative analysis, plates were read at 570 nm and 600 nm in Multiskan GOmicroplate spectrophotometer, (Thermo Scientific, USA). The % inhibition of bacterial growth was calculated using below mentioned formula.
(§2) For the calculation of the % difference in reduction between treated and control cells in cytotoxicity/proliferation assays: =(εOX)λ2Aλ1-(εOX)λ1Aλ2oftestagent/(εOX)λ2A°λ1-(εOX)λ1A°λ2ofpositivegrowthcontrol×100

[2] = tested on: Staphylococcus aureus (ATCC 25923); test: Microplate Alamar Blue Assay, Staphylococcus aureus; assay type: cell-based; details: Staphylococcus aureus
Method: as §1, §2

[3] = tested on: Escherichia coli (ATCC 12022); test: Microplate Alamar Blue Assay, Escherichia coli; assay type: cell-based
Method: as §1, §2

[4] = tested on: Pseudomonas aeruginosa (POA 286); test: Microplate Alamar Blue Assay, Pseudomonas aeruginosa; assay type: cell-based; details: Pseudomonas aeruginosa, read-out: Percentage (%) Inhibition, Pseudomonas aerugenosa
Method: as §1, §2

[5] = tested on: Salmonella typhi (ATCC 14028); test: Microplate Alamar Blue Assay, Salmonella typhi; assay type: cell-based; details: Salmonella enterica; 200 μg/mL; NI = No inhibition; read-out: Percentage (%) Inhibition, Slamonella typhi
Method: as §1, §2

[6] = ATCC6633, 200 μg/mL, NI = No inhibition, read-out: Percentage (%) Inhibition, Bacillus subtilis
[7] = ATCC25923, 200 μg/mL, NI = No inhibition, read-out: Percentage (%) Inhibition, Staphylococcus aureus
[8] = ATCC12022, 200 μg/mL, NI = No inhibition, read-out: Percentage (%) Inhibition, Escherichia coli

Structure (SMILES) | IC50 (MTT cytotoxicity assay) | inhibition at 200 µg/mL [1, 6] | inhibition at 200 µg/mL [2, 7] | inhibition at 200 µg/mL [3, 8] | inhibition at 200 µg/mL ([4]; 200 μg/mL, NI = No inhibition) | inhibition at 200 µg/mL [5] | IC50 at 48 h (MTT cytotoxicity assay) | inhibition at 200 µg/mL ([1]; ATCC6633, read-out: Percentage (%) Inhibition, Bacillus subtilis) | inhibition at 200 µg/mL ([2]; ATCC25923, read-out: Percentage (%) Inhibition, Staphylococcus aureus) | inhibition at 200 µg/mL ([3]; ATCC12022, read-out: Percentage (%) Inhibition, Escherichia coli) | inhibition at 200 µg/mL [4]
Cc1cc(C)nc(NS(=O)(=O)c2ccc(NC(=O)c3ccc([N+](=O)[O-])cc3)cc2)n1 [Compound 25, N-(4-(N-(4,6-dimethylpyrimidin-2-yl)sulfamoyl)phenyl)-4-nitrobenzamide] | > 30 µM | < 0% | 17.5% | 1.21% | 6.35% | 4.64% | – | – | – | – | –
CC1COc2c(N3CCN(C)CC3)c(F)cc3c(=O)c(C(=O)O)cn1c23 (stereo not shown) [Ofloxacin, reference compound] | – | 93.8% | 94.1% | 94.4% | 94.1% | 89.8% | – | – | – | – | –
Cc1cc(C)nc(NS(=O)(=O)c2ccc(NC(=O)c3cccc(I)c3)cc2)n1 [Compound 31, N-(4-(N-(4,6-dimethylpyrimidin-2-yl)sulfamoyl)phenyl)-3-iodobenzamide] | > 30 µM | < 0% | 13% | < 0% | < 0% | < 0% | – | – | – | – | –
Cc1cc(C)nc(NS(=O)(=O)c2ccc(NC(=O)c3cccc(Cl)c3)cc2)n1 [Compound 21, 3-chloro-N-(4-(N-(4,6-dimethylpyrimidin-2-yl)sulfamoyl)phenyl)benzamide] | > 30 µM | < 0% | 54.6% | < 0% | 28% | 14.6% | – | – | – | – | –
Cc1cc(C)nc(NS(=O)(=O)c2ccc(NC(=O)c3cc([N+](=O)[O-])cc([N+](=O)[O-])c3)cc2)n1 [Compound 26, N-(4-(N-(4,6-dimethylpyrimidin-2-yl)sulfamoyl)phenyl)-3,5-dinitrobenzamide] | – | – | – | – | – | < 0% | > 30 µM | < 0% | 34.7% | < 0% | < 0%
Cc1cc(C)nc(NS(=O)(=O)c2ccc(NC(=O)c3ccccc3)cc2)n1 [Compound 39, N-(4-(N-(4,6-dimethylpyrimidin-2-yl)sulfamoyl)phenyl)benzamide] | > 30 µM | < 0% | 41.1% | 1.84% | < 0% | 12.5% | – | – | – | – | –
COc1cccc(C(=O)Nc2ccc(S(=O)(=O)Nc3nc(C)cc(C)n3)cc2)c1 [Compound 32, N-(4-(N-(4,6-dimethylpyrimidin-2-yl)sulfamoyl)phenyl)-3-methoxybenzamide] | > 30 µM | < 0% | 32.9% | < 0% | < 0% | 19% | – | – | – | – | –
Cc1cc(C)nc(NS(=O)(=O)c2ccc(NC(=O)c3ccc(Cl)cc3)cc2)n1 [Compound 22, 4-chloro-N-(4-(N-(4,6-dimethylpyrimidin-2-yl)sulfamoyl)phenyl)benzamide] | > 30 µM | < 0% | 44.3% | < 0% | 9.78% | 11.6% | – | – | – | – | –
Cc1cc(C)nc(NS(=O)(=O)c2ccc(NC(=O)c3cccc(Br)c3)cc2)n1 [Compound 30, 3-Bromo-N-(4-(N-(4,6-dimethylpyrimidin-2-yl)sulfamoyl)phenyl)benzamide] | > 30 µM | < 0% | 34.2% | < 0% | < 0% | 4.26% | – | – | – | – | –
Cc1cc(C)nc(NS(=O)(=O)c2ccc(NC(=O)c3cc(Cl)ccc3Cl)cc2)n1 [Compound 23, 2,5-dichloro-N-(4-(N-(4,6-dimethylpyrimidin-2-yl)sulfamoyl)phenyl)benzamide] | > 30 µM | < 0% | 5.76% | < 0% | 1.54% | < 0% | – | – | – | – | –
Cc1cc(C)nc(NS(=O)(=O)c2ccc(NC(=O)c3ccccc3F)cc2)n1 [Compound 17, N-(4-(N-(4,6-dimethylpyrimidin-2-yl)sulfamoyl)phenyl)-2-fluorobenzamide] | > 30 µM | < 0% | 24.3% | < 0% | < 0% | – | – | – | – | – | –
Cc1cc(C)nc(NS(=O)(=O)c2ccc(NC(=O)c3ccc(F)c(F)c3)cc2)n1 [Compound 18, N-(4-(N-(4,6-dimethylpyrimidin-2-yl)sulfamoyl)phenyl)-3,4-difluorobenzamide] | > 30 µM | < 0% | 49.7% | < 0% | < 0% | 22.5% | – | – | – | – | –
Cc1cc(C)nc(NS(=O)(=O)c2ccc(NC(=O)c3cccc(F)c3)cc2)n1 [Compound 16, N-(4-(N-(4,6-dimethylpyrimidin-2-yl)sulfamoyl)phenyl)-3-fluorobenzamide] | > 30 µM | < 0% | 47.2% | < 0% | < 0% | 19.4% | – | – | – | – | –
Cc1cc(C)nc(NS(=O)(=O)c2ccc(NC(=O)c3ccccc3Br)cc2)n1 [Compound 28, 2-Bromo-N-(4-(N-(4,6-dimethylpyrimidin-2-yl)sulfamoyl)phenyl)benzamide] | > 30 µM | < 0% | 58.5% | 4.65% | 3.99% | 11.1% | – | – | – | – | –
Cc1cc(C)nc(NS(=O)(=O)c2ccc(NC(=O)CCc3ccccc3)cc2)n1 [Compound 37, N-(4-(N-(4,6-dimethylpyrimidin-2-yl)sulfamoyl)phenyl)-3-phenylpropanamide] | > 30 µM | < 0% | 10.2% | < 0% | < 0% | < 0% | – | – | – | – | –
Cc1cc(C)nc(NS(=O)(=O)c2ccc(NC(=O)c3ccc(Br)cc3)cc2)n1 [Compound 29, 4-Bromo-N-(4-(N-(4,6-dimethylpyrimidin-2-yl)sulfamoyl)phenyl)benzamide] | > 30 µM | < 0% | 52.3% | < 0% | 15% | 14.1% | – | – | – | – | –
Cc1cc(C)nc(NS(=O)(=O)c2ccc(NC(=O)c3ccccc3C)cc2)n1 [Compound 35, N-(4-(N-(4,6-dimethylpyrimidin-2-yl)sulfamoyl)phenyl)-2-methylbenzamide] | > 30 µM | < 0% | < 0% | < 0% | 16.5% | 0.2% | – | – | – | – | –
Cc1cc(C)nc(NS(=O)(=O)c2ccc(NC(=O)c3cccc(C(F)(F)F)c3F)cc2)n1 [Compound 14, N-(4-(N-(4,6-dimethylpyrimidin-2-yl)sulfamoyl)phenyl)-2-fluoro-3-(trifluoromethyl)benzamide] | > 30 µM | < 0% | 27.4% | < 0% | 1.04% | 25.4% | – | – | – | – | –

Reference: article PMC6300282, “Sulphamethazine derivatives as immunomodulating agents: New therapeutic strategies for inflammatory diseases” (PLoS ONE, 2018)
